Measurements reported in publication PMC6707612, “Cyclic-di-GMP binds to histidine kinase RavS to control RavS-RavR phosphotransfer and regulates the bacterial lifestyle transition between virulence and swimming” (PLoS Pathogens, 2019).

Target: T1, RavR^ΔEAL (Xanthomonas campestris pv. campestris, UniProt Q8P9A7)
T1 sequence (Q8P9A7 with tags, fused parts or gaps): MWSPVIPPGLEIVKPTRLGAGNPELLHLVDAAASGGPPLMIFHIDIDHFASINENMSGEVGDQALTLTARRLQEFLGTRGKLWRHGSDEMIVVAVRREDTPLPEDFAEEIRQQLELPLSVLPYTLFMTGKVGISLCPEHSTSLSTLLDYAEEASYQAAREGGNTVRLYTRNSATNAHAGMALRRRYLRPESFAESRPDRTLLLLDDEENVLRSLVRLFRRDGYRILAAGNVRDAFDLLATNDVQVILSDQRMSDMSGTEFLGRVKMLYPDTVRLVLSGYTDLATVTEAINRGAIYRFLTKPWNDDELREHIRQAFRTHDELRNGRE
Test: microscale thermophoresis (MST) binding
Details: 20 nM fluorescein-labelled nucleotide

Question: Which “dissociation constant (Kd)” value does the source give for `Nc1nc2c(ncn2[C@@H]2O[C@@H]3COP(=O)(O)O[C@H]4[C@@H](O)[C@H](n5cnc6c(=O)[nH]c(N)nc65)O[C@@H]4COP(=O)(O)O[C@H]3[C@H]2O)c(=O)[nH]1` [c-di-GMP, Cyclic di-GMP] here?
Answer: did not bind
